The values below are quoted from earlier work in patent US5362498A, “Process for preparing a bioadhesive pharmaceutical dosage form and pharmaceutical dosage form thus prepared” (priority 1990, dated 1994).

The conditions of this data set: metabolite produced by digestive tract absorption of morphinic active principles.

Turning to `CN1CC[C@]23c4c5ccc(O)c4O[C@H]2[C@@H](O[C@@H]2O[C@H](C(=O)O)[C@@H](O)[C@H](O)[C@H]2O)C=C[C@H]3[C@H]1C5` [morphine 6-glucuronide], the relative potency was 1.5 times.
